According to patent US12421211B2, “Heterocyclic compounds” (Hoffmann-La Roche Inc., priority 2021, dated 2025):
Where a name gives a salt, the structure may show the parent alone.

Each compound was assayed on Acinetobacter baumannii ATCC17961 (assay: Antimicrobial susceptibility testing: 90% growth inhibitory concentration (IC90) determination). Conditions: 90% growth inhibitory concentration, Acinetobacter baumannii ATCC17961, Iso-Sensitest broth, OD 600 nm over 16 h; formate; read-out: ATCC 17961 IC90.
Type: cell-based
Protocol: Assay Procedures Antimicrobial Susceptibility Testing: 90% Growth Inhibitory Concentration (IC90) Determination
The in vitro antimicrobial activity of the compounds was determined according to the following procedure:
The assay used a 10-points Iso-Sensitest broth medium to measure quantitatively the in vitro activity of the compounds against Acinetobacter baumannii ATCC17961.
Stock compounds in DMSO were serially twofold diluted (e.g. range from 50 to 0.097 μM final concentration) in 384 wells microtiter plates and inoculated with 49 μl the bacterial suspension in Iso-Sensitest medium to have a final cell concentration of ˜5×10^(5) CFU/ml in a final volume/well of 50 ul/well. Microtiter plates were incubated at 35±2° C.
Bacterial cell growth was determined with the measurement of optical density at λ=600 nm each 20 minutes over a time course of 16h. Growth inhibition was calculated during the logarithmic growth of the bacterial cells with determination of the concentration inhibiting 50% (IC50) and 90% (IC90) of the growth.
Table 1 provides the 90% growth inhibitory concentrations (IC90) in micromoles per liter of the compounds of present invention obtained against the strain Acinetobacter baumannii ATCC17961.

SMILES | IC90
COCCn1cc(-c2ccc(-c3cnc(C(=O)Nc4ccc(C(=O)N5CCN(C(=O)C6CC[N+](C)(CC(N)=O)CC6)CC5)c(Cl)c4)n3C)c(F)c2F)c(C)n1 (stereo not shown) [Example B3, N-[4-[4-[1-(2-amino-2-oxo-ethyl)-1-methyl-piperidin-1-ium-4-carbonyl]piperazine-1-carbonyl]-3-chloro-phenyl]-5-[2,3-difluoro-4-[1-(2-methoxyethyl)-3-methyl-pyrazol-4-yl]phenyl]-1-methyl-imidazole-2-carboxamide; formate] | 130 nM

Same assay, conditions: Acinetobacter baumannii, ATCC17961, 16 h, 90% growth inhibitory concentration, Acinetobacter baumannii ATCC17961, Iso-Sensitest broth, OD 600 nm over 16 h; read-out: ATCC 17961 IC90

IC90 | SMILES
810 nM | COCCn1ncc(-c2ccc(-c3cnc(C(=O)Nc4ccc(C(=O)N5CCC(C(=O)N6CC[N+](C)(CC(=O)O)CC6)CC5)c(Cl)c4)n3C)c(F)c2F)c1C [Example B13, 2-[4-[1-[2-chloro-4-[[5-[2,3-difluoro-4-[1-(2-methoxyethyl)-5-methyl-pyrazol-4-yl]phenyl]-1-methyl-imidazole-2-carbonyl]amino]benzoyl]piperidine-4-carbonyl]-1-methyl-piperazin-1-ium-l-yl]acetic acid; 2,2,2-trifluoroacetate]
170 nM | COCCn1ncc(-c2ccc(-c3cnc(C(=O)Nc4ccc(C(=O)N5CCC(C(=O)N6CC[N+](C)(CC(N)=O)CC6)CC5)c(Cl)c4)n3C)c(F)c2F)c1C [Example B15, N-[4-[4-[4-(2-amino-2-oxo-ethyl)-4-methyl-piperazin-4-ium-1-carbonyl]piperidine-1-carbonyl]-3-chloro-phenyl]-5-[2,3-difluoro-4-[1-(2-methoxyethyl)-5-methyl-pyrazol-4-yl]phenyl]-1-methyl-imidazole-2-carboxamide; formate]
220 nM | COCCn1ncc(-c2ccc(-c3cnc(C(=O)Nc4ccc(C(=O)N5CCN(C(=O)C6CC[N+](CC(=O)O)(CC7CNC7)CC6)CC5)c(Cl)c4)n3C)c(F)c2F)c1C (stereo not shown) [Example B20, 2-[1-(azetidin-3-ylmethyl)-4-[4-[2-chloro-4-[[5-[2,3-difluoro-4-[1-(2-methoxyethyl)-5-methyl-pyrazol-4-yl]phenyl]-1-methyl-imidazole-2-carbonyl]amino]benzoyl]piperazine-1-carbonyl]piperidin-1-ium-1-yl]acetic acid; formic acid; formate]
100 nM | COCCn1ncc(-c2ccc(-c3cnc(C(=O)Nc4ccc(C(=O)N5CCN(C(=O)C6CC[N+](C)(CC7CNC7)CC6)CC5)c(Cl)c4)n3C)c(F)c2F)c1C (stereo not shown) [Example B21, N-[4-[4-[1-(azetidin-3-ylmethyl)-1-methyl-piperidin-1-ium-4-carbonyl]piperazine-1-carbonyl]-3-chloro-phenyl]-5-[2,3-difluoro-4-[1-(2-methoxyethyl)-5-methyl-pyrazol-4-yl]phenyl]-1-methyl-imidazole-2-carboxamide; formic acid; formate]
330 nM | COCCn1ncc(-c2ccc(-c3cnc(C(=O)Nc4ccc(C(=O)N5CCC(C(=O)N6CC[N+](CC(=O)O)(CC7CNC7)CC6)CC5)c(Cl)c4)n3C)c(F)c2F)c1C [Example B22, 2-[1-(azetidin-3-ylmethyl)-4-[1-[2-chloro-4-[[5-[2,3-difluoro-4-[1-(2-methoxyethyl)-5-methyl-pyrazol-4-yl]phenyl]-1-methyl-imidazole-2-carbonyl]amino]benzoyl]piperidine-4-carbonyl]piperazin-1-ium-1-yl]acetic acid; formate]
98 nM | COCCn1ncc(-c2ccc(-c3cnc(C(=O)Nc4ccc(C(=O)N5CCC(C(=O)N6CC[N+](C)(CC7CNC7)CC6)CC5)c(Cl)c4)n3C)c(F)c2F)c1C [Example B23, N-[4-[4-[4-(azetidin-3-ylmethyl)-4-methyl-piperazin-4-ium-1-carbonyl]piperidine-1-carbonyl]-3-chloro-phenyl]-5-[2,3-difluoro-4-[1-(2-methoxyethyl)-5-methyl-pyrazol-4-yl]phenyl]-1-methyl-imidazole-2-carboxamide; formate]
95 nM | COCCn1ncc(-c2ccc(-c3cnc(C(=O)Nc4ccc(C(=O)N5CCC(C(=O)N6CC[N+](CC(N)=O)(CC7CNC7)CC6)CC5)c(Cl)c4)n3C)c(F)c2F)c1C [Example B24, N-[4-[4-[4-(2-amino-2-oxo-ethyl)-4-(azetidin-3-ylmethyl)piperazin-4-ium-1-carbonyl]piperidine-1-carbonyl]-3-chloro-phenyl]-5-[2,3-difluoro-4-[1-(2-methoxyethyl)-5-methyl-pyrazol-4-yl]phenyl]-1-methyl-imidazole-2-carboxamide; 2,2,2-trifluoroacetate; 2,2,2-trifluoroacetic acid]

Same assay, conditions: Acinetobacter baumannii, ATCC17961, 16 h, read-out: ATCC 17961 IC90

SMILES | IC90
Cc1nn(CC(F)F)cc1-c1ccc(-c2cnc(C(=O)Nc3ccc(C(=O)N4CCN(C(=O)C5CC[N+](C)(CC(N)=O)CC5)CC4)c(Cl)c3)n2C)c(F)c1F (stereo not shown) [Example B7, N-[4-[4-[1-(2-amino-2-oxo-ethyl)-1-methyl-piperidin-1-ium-4-carbonyl]piperazine-1-carbonyl]-3-chloro-phenyl]-5-[4-[1-(2,2-difluoroethyl)-3-methyl-pyrazol-4-yl]-2,3-difluoro-phenyl]-1-methyl-imidazole-2-carboxamide; formate] | 170 nM
COCCn1nc(C)c(-c2ccc(-c3cnc(C(=O)Nc4ccc(C(=O)N5CCN(C(=O)C6CC[N+](C)(CCO)CC6)CC5)c(Cl)c4)n3C)c(F)c2F)c1C (stereo not shown) [Example B8, N-[3-chloro-4-[4-[1-(2-hydroxyethyl)-1-methyl-piperidin-1-ium-4-carbonyl]piperazine-1-carbonyl]phenyl]-5-[2,3-difluoro-4-[1-(2-methoxyethyl)-3,5-dimethyl-pyrazol-4-yl]phenyl]-1-methyl-imidazole-2-carboxamide; formate] | 280 nM
COCCn1nc(C)c(-c2ccc(-c3cnc(C(=O)Nc4ccc(C(=O)N5CCN(C(=O)C6CC[N+](C)(CCOC)CC6)CC5)c(Cl)c4)n3C)c(F)c2F)c1C (stereo not shown) [Example B9, N-[3-chloro-4-[4-[1-(2-methoxyethyl)-1-methyl-piperidin-1-ium-4-carbonyl]piperazine-1-carbonyl]phenyl]-5-[2,3-difluoro-4-[1-(2-methoxyethyl)-3,5-dimethyl-pyrazol-4-yl]phenyl]-1-methyl-imidazole-2-carboxamide; formate] | 510 nM
COCCn1nc(C)c(-c2ccc(-c3cnc(C(=O)Nc4ccc(C(=O)N5CCN(C(=O)C6CC[N+](C)(CC(N)=O)CC6)CC5)c(Cl)c4)n3C)cc2)c1C (stereo not shown) [Example B10, N-[4-[4-[1-(2-amino-2-oxo-ethyl)-1-methyl-piperidin-1-ium-4-carbonyl]piperazine-1-carbonyl]-3-chloro-phenyl]-5-[4-[1-(2-methoxyethyl)-3,5-dimethyl-pyrazol-4-yl]phenyl]-1-methyl-imidazole-2-carboxamide; formate] | 200 nM
COCCn1nc(C)c(-c2ccc(-c3cnc(C(=O)Nc4ccc(C(=O)N5CCN(C(=O)C6CC[N+](C)(CCO)CC6)CC5)c(Cl)c4)n3C)cc2)c1C (stereo not shown) [Example B11, N-[3-chloro-4-[4-[1-(2-hydroxyethyl)-1-methyl-piperidin-1-ium-4-carbonyl]piperazine-1-carbonyl]phenyl]-5-[4-[1-(2-methoxyethyl)-3,5-dimethyl-pyrazol-4-yl]phenyl]-1-methyl-imidazole-2-carboxamide; formate] | 170 nM
COCCn1ncc(-c2ccc(-c3cnc(C(=O)Nc4ccc(C(=O)N5CCN(C(=O)C6CC[N+](C)(CCO)CC6)CC5)c(Cl)c4)n3C)c(F)c2F)c1C (stereo not shown) [Example B12, N-[3-chloro-4-[4-[1-(2-hydroxyethyl)-1-methyl-piperidin-1-ium-4-carbonyl]piperazine-1-carbonyl]phenyl]-5-[2,3-difluoro-4-[1-(2-methoxyethyl)-5-methyl-pyrazol-4-yl]phenyl]-1-methyl-imidazole-2-carboxamide; formate] | 110 nM
COCCn1ncc(-c2ccc(-c3cnc(C(=O)Nc4ccc(C(=O)N5CCN(C(=O)C6CC[N+](C)(CC(=O)NN)CC6)CC5)c(Cl)c4)n3C)c(F)c2F)c1C (stereo not shown) [Example B17, N-[3-chloro-4-[4-[1-(2-hydrazino-2-oxo-ethyl)-1-methyl-piperidin-1-ium-4-carbonyl]piperazine-1-carbonyl]phenyl]-5-[2,3-difluoro-4-[1-(2-methoxyethyl)-5-methyl-pyrazol-4-yl]phenyl]-1-methyl-imidazole-2-carboxamide; formic acid; formate] | 260 nM
COCCn1cc(-c2ccc(-c3cnc(C(=O)Nc4ccc(C(=O)N5CCN(C(=O)C6CC[N+](CC(=O)O)(CC7CNC7)CC6)CC5)c(Cl)c4)n3C)c(F)c2F)c(C)n1 (stereo not shown) [Example B18, 2-[1-(azetidin-3-ylmethyl)-4-[4-[2-chloro-4-[[5-[2,3-difluoro-4-[1-(2-methoxyethyl)-3-methyl-pyrazol-4-yl]phenyl]-1-methyl-imidazole-2-carbonyl]amino]benzoyl]piperazine-1-carbonyl]piperidin-1-ium-1-yl]acetic acid; formic acid; formate] | 430 nM
